Experimental data reported in BindingDB's records for patent US12522634 (Farsight Medical Technology (Shanghai), 2026).
Starred links: 1 amine or outer side, 2 acyl side, 3 side chain; linkers in the order of their positions; H or OH if unused. Non-standard residues stand in square brackets, D forms with d. Residues, ends and D or L forms follow the SMILES beside them. MeBmt = C/C=C/C[C@@H](C)[C@@H](O)[C@H](NC)C(=O)O; X1 = CN([C@H](OCCN1CCOCC1)C(=O)[*:2])[*:1]; X2 = CN(C)CCO[C@H](C(=O)[*:2])N(C)[*:1]; NMeL = CN[C@@H](CC(C)C)C(=O)O; NMeV = CN[C@H](C(=O)O)C(C)C; Nva = CCC[C@H](N)C(=O)O

Assays:
[1] = molecular target: Peptidyl-prolyl cis-trans isomerase A (Homo sapiens, UniProt P62937); experiment: Cyclophilin Peptidyl-Prolyl Isomerase Functional Assay
[2] = molecular target: Peptidyl-prolyl cis-trans isomerase F, mitochondrial (Human, UniProt P30405); experiment: as above
Sequence of Peptidyl-prolyl cis-trans isomerase F, mitochondrial (P30405 whole entry): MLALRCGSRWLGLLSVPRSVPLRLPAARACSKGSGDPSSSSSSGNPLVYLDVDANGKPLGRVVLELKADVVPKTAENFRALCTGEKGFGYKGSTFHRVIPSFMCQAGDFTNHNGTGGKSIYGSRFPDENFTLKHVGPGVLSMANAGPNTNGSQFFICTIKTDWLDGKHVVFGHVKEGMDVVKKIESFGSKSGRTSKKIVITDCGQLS

Sequence of Peptidyl-prolyl cis-trans isomerase A (P62937 whole entry): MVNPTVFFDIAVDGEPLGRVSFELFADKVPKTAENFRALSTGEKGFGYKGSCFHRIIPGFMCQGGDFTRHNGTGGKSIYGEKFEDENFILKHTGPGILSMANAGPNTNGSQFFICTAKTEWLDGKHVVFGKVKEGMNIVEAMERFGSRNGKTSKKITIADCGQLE

Row | Ki [1] [nM] | Ki [2] [nM] | Structure (SMILES)
1 | 9.4 | 5.9 | C/C=C/C[C@@H](C)[C@@H](O)[C@H]1C(=O)N[C@@H](CCC)C(=O)N(C)[C@H](OCCN(C)C)C(=O)N(C)[C@@H](CC(C)C)C(=O)N[C@@H](C(C)C)C(=O)N(C)[C@@H](CC(C)C)C(=O)N[C@@H](C)C(=O)N[C@H](C)C(=O)N(C)[C@@H](CC(C)C)C(=O)N(C)[C@@H](CC(C)C)C(=O)N(C)[C@@H](C(C)C)C(=O)N1C [US12522634, Compound 7] (cyclo(A[dA][NMeL][NMeL][NMeV][MeBmt][Nva][X2][NMeL]V[NMeL]))
2 |  | 5.1 | C/C=C/C[C@@H](C)[C@@H](O)[C@H]1C(=O)N[C@@H](C(C)C)C(=O)N(C)[C@H](OCCN(C)C)C(=O)N(C)[C@@H](CC(C)C)C(=O)N[C@@H](C(C)C)C(=O)N(C)[C@@H](CC(C)C)C(=O)N[C@@H](C)C(=O)N[C@H](C)C(=O)N(C)[C@@H](CC(C)C)C(=O)N(C)[C@@H](CC(C)C)C(=O)N(C)[C@@H](C(C)C)C(=O)N1C [US12522634, Compound 3] (cyclo(A[dA][NMeL][NMeL][NMeV][MeBmt]V[X2][NMeL]V[NMeL]))
3 | 2.3 | 4.1 | C/C=C/C[C@@H](C)[C@@H](O)[C@H]1C(=O)N[C@@H](C(C)C)C(=O)N(C)[C@H](OCCN2CCOCC2)C(=O)N(C)[C@@H](CC(C)C)C(=O)N[C@@H](C(C)C)C(=O)N(C)[C@@H](CC(C)C)C(=O)N[C@@H](C)C(=O)N[C@H](C)C(=O)N(C)[C@@H](CC(C)C)C(=O)N(C)[C@@H](CC(C)C)C(=O)N(C)[C@@H](C(C)C)C(=O)N1C [US12522634, Compound 4] (cyclo(A[dA][NMeL][NMeL][NMeV][MeBmt]V[X1][NMeL]V[NMeL]))
4 | 39 | 35 | C/C=C/C[C@@H](C)[C@@H](O)[C@H]1C(=O)N[C@@H](CCC)C(=O)N(C)[C@H](OCCN2CCOCC2)C(=O)N(C)[C@@H](CC(C)C)C(=O)N[C@@H](C(C)C)C(=O)N(C)[C@@H](CC(C)C)C(=O)N[C@@H](C)C(=O)N[C@H](C)C(=O)N(C)[C@@H](CC(C)C)C(=O)N(C)[C@@H](CC(C)C)C(=O)N(C)[C@@H](C(C)C)C(=O)N1C [US12522634, Compound 8] (cyclo(A[dA][NMeL][NMeL][NMeV][MeBmt][Nva][X1][NMeL]V[NMeL]))
